These results are taken from US10851067B2, “Kv7 channel activators compositions and methods of use” (Knopp Biosciences LLC, priority 2018, dated 2020).

In the test the target is Kv7.2/7.3 (Homo sapiens, UniProt O43525+O43526). Kind of test: Kv7.2/7.3 Activation Assay, QPatch single concentration screen. The note with it: Kv7.2/Kv7.3 co-expressing HEK cells, compound concentration 3 μM, steady-state current at end of 2 s pulse to −30 mV. In kind it is cell-based. Also on record: host or cells: HEK cells, tetracycline-inducible expression. As to the method:
Kv7.2/7.3 Activation Assay
The ability of compounds to potentiate K-currents in Kv7.2/7.3 containing HEK cells was assessed using planar patch-clamp on the QPatch automated screening platform.
The hKv7.2/7.3 cell line was obtained from Chantest (Cleveland, Ohio 44128) cat. #CT6147. These HEK cells will express the Kv7.2/7.3 ion channels when induced.
Cells were maintained in a media containing DMEM/F12; 50/50 (GIBCO cat. #11330), 10% Fetal Bovine Serum (FBS) (GIBCO cat. #26140), 100 units/mL Penicillin-Streptomycin (GIBCO cat. #15140), 0.005 mg/mL Blasticidin (INVIVOGEN cat. #ant-b1-1), 0.5 mg/mL Geneticin (GIBCO cat. #10131), 0.1 mg/mL Zeocin (GIBCO cat. #R25001). Cells used in the electrophysiology assay were maintained in a media without Blasticidin, Geneticin and Zeocin for 2 days and channel expression was induced by adding tetracycline (BIOLINE cat. #BIO-87030) at a final concentration of 1 mg/mL. Cells were grown in T-175 flask to ˜75% confluency. Currents were recorded 24 hours after channel induction.
Test compounds were prepared by performing serial dilutions on a Biomek NX^P (BECKMAN COULTER). Final dilutions were made in external recording solution with a final DMSO concentration of 0.1% DMSO. For single concentration screens each plate had 10 μM retigabine as a positive control and 0.1% DMSO as a negative control.
On the day of the experiment cells were washed with Hank's Balanced Salt Solution (HBBS) (GIBCO cat. #14175) and harvested with Tryple (GIBCO cat. #12604). Cells were then centrifuged at 2000 rpm for 5 minutes and resuspended in CHO-S-SFM (GIBCO cat. #12052) at ˜3×10^6 cells/mL. Cells were stirred for 30 minutes before experiments were started. External recording solution contained (in mM): NaCl (145), KCl (4), CaCl2 (2), MgCl2 (1), HEPES (10) and Glucose (10); pH was adjusted to 7.4 with NaOH and the osmolarity was adjusted to 300-305 mOsM with sucrose if necessary. Internal solution contained (in mM): KCl (125), KF (10), EGTA (5), Na2ATP (5), MgCl2 (3.2), HEPES (5); pH was adjusted to 7.2 with KOH and the osmolarity was adjusted to 298-302 mOsM with sucrose.
Potassium channel activity was measured on the QPatch HTX (Sophion Bioscience) using QPlates with 48-wells/plate. Each cell was taken as an independent experiment and only one compound was tested per well. Potassium channel activity was elicited by holding at −80 mV and stepping to −30 mV for 2 s followed by a 100 ms pulse to −120 mV.
Single Concentration Screen:
Baseline conditions were obtained by recording 5 sweeps in the external solution only, this was repeated for three applications of the external solution. The effect of test compounds on elicited current was then assessed by recording 5 sweeps in the presence of a 3 μM compound solution. The steady-state current at the end of the 2 s pulse to −30 mV was measured to determine the fold increase from baseline.
(The patch-clamp technique gives a direct electrical read-out from membranes.)
Take `CC(O)(CC(=O)Nc1nc2ccc(C#N)cc2n1C1(C)CCC1)c1c(F)cccc1F` (single isomer, unassigned) [Example 467, N-(6-cyano-1-(1-methylcyclobutyl)-1H-benzo[d]imidazol-2-yl)-3-(2,6-difluorophenyl)-3-hydroxybutanamide]: the “Kv7.2/7.3 Activity: increase over baseline in current” value (from here on “Kv7.2/7.3 Activity: increase”) is on record as “+ (1.2-2.9 (+))”. As for `CC(O)(CC(=O)Nc1nc2cccc(C#N)c2n1C1(C)CCC1)c1ccccc1` (single isomer, unassigned) [Example 468, N-(7-cyano-1-(1-methylcyclobutyl)-1H-benzo[d]imidazol-2-yl)-3-hydroxy-3-phenylbutanamide], the entry is “+ (1.2-2.9 (+))”; as for `CC1(Cn2c(NC(=O)CC(C)(O)c3ccccc3)nc3ccc(C#N)cc32)CC1` (single isomer, unassigned) [Example 471, N-(6-cyano-1-((1-methylcyclopropyl)methyl)-1H-benzo[d]imidazol-2-yl)-3-hydroxy-3-phenylbutanamide], “+ (1.2-2.9 (+))”; as for `CC(O)(CC(=O)Nc1nc2cc(F)c(C#N)cc2n1C1(C)CCC1)c1ccccc1F` (single isomer, unassigned) [Example 478, N-(6-cyano-5-fluoro-1-(1-methylcyclobutyl)-1H-benzo[d]imidazol-2-yl)-3-(2-fluorophenyl)-3-hydroxybutanamide], “+ (1.2-2.9 (+))”. With `CC(O)(CC(=O)Nc1nc2ccc(C#N)cc2n1CC(F)(F)F)c1ccccc1F` (single isomer, unassigned) [Example 483, N-(6-cyano-1-(2,2,2-trifluoroethyl)-1H-benzo[d]imidazol-2-yl)-3-(2-fluorophenyl)-3-hydroxybutanamide], the “Kv7.2/7.3 Activity: increase” value is on record as “++ (3-3.9 (++))”. As for `CN(C)c1ccc2nc(NC(=O)CC(C)(O)c3ccccc3)n(C3CCC3)c2c1F` (single isomer, unassigned) [Example 485, N-(1-cyclobutyl-6-(dimethylamino)-7-fluoro-1H-benzo[d]imidazol-2-yl)-3-hydroxy-3-phenylbutanamide], the entry is “+++ (>4 (+++) fold increase over baseline)”; as for `CC(C)(C)CC(=O)Nc1nc2c(F)cc(OC(F)F)cc2n1C1CCC1` [Example 331, N-(1-cyclobutyl-6-(difluoromethoxy)-4-fluoro-1H-benzo[d]imidazol-2-yl)-3,3-dimethylbutanamide], “+++ (>4 (+++) fold increase over baseline)”; as for `CC(C)(C)CC(=O)Nc1nc2ccc(C(C)(C)O)cc2n1C1CC(F)(F)C1` [Example 332, N-(1-(3,3-difluorocyclobutyl)-6-(2-hydroxypropan-2-yl)-1H-benzo[d]imidazol-2-yl)-3,3-dimethylbutanamide], “+ (1.2-2.9 (+))”. On to `CC(C)(CC(=O)Nc1nc2ccc(C#N)cc2n1C(C)(C)C(F)(F)F)C1CC1` [Example 333, N-(6-cyano-1-(1,1,1-trifluoro-2-methylpropan-2-yl)-1H-benzo[d]imidazol-2-yl)-3-cyclopropyl-3-methylbutanamide], for which the “Kv7.2/7.3 Activity: increase” value is “++ (3-3.9 (++))”. As for `CC(C)(C)CC(=O)Nc1nc2ccc(OCC(F)(F)F)c(F)c2n1C1CCC1` [Example 334, N-(1-cyclobutyl-7-fluoro-6-(2,2,2-trifluoroethoxy)-1H-benzo[d]imidazol-2-yl)-3,3-dimethylbutanamide], the entry is “++ (3-3.9 (++))”. Then `C[C@H](CC(=O)Nc1nc2ccc(C(C)(C)O)cc2n1C1CCC1)c1ccccc1` [Example 336, (R)-N-(1-cyclobutyl-6-(2-hydroxypropan-2-yl)-1H-benzo[d]imidazol-2-yl)-3-phenylbutanamide], with “+ (1.2-2.9 (+))”.

Take `CC(C)(C)CC(=O)Nc1nc2ccc(C#N)cc2n1C1(C)CCC1` [Example 337, N-(6-cyano-1-(1-methylcyclobutyl)-1H-benzo[d]imidazol-2-yl)-3,3-dimethylbutanamide]: the “Kv7.2/7.3 Activity: increase” value is recorded as “++ (3-3.9 (++))”. With `CC(C)(CC(=O)Nc1nc2c(F)cc(OC(F)F)cc2n1C1(C)CCC1)C1CC1` [Example 338, 3-cyclopropyl-N-(6-(difluoromethoxy)-4-fluoro-1-(1-methylcyclobutyl)-1H-benzo[d]imidazol-2-yl)-3-methylbutanamide], the “Kv7.2/7.3 Activity: increase” value is reported as “+++ (>4 (+++) fold increase over baseline)”. On to `CC1(n2c(NC(=O)CC(C)(C)C(F)(F)F)nc3cc(F)cc(C#N)c32)CCC1` [Example 340, N-(7-cyano-5-fluoro-1-(1-methylcyclobutyl)-1H-benzo[d]imidazol-2-yl)-4,4,4-trifluoro-3,3-dimethylbutanamide], for which the “Kv7.2/7.3 Activity: increase” value is recorded as “+ (1.2-2.9 (+))”. Consider `[2H]C([2H])([2H])C(CC(=O)Nc1nc2c(F)cc(C(C)(C)O)cc2n1C1CCC1)(C([2H])([2H])[2H])C([2H])([2H])[2H]` [Example 342, N-(1-cyclobutyl-4-fluoro-6-(2-hydroxypropan-2-yl)-1H-benzo[d]imidazol-2-yl)-3,3-bis(methyl-d3)butanamide], for which the “Kv7.2/7.3 Activity: increase” value was “+++ (>4 (+++) fold increase over baseline)”. With `CC(C)(C)CC(=O)Nc1nc2c(F)cc(Br)cc2n1C1CCC1` [Example 343, N-(6-bromo-1-cyclobutyl-4-fluoro-1H-benzo[d]imidazol-2-yl)-3,3-dimethylbutanamide], the “Kv7.2/7.3 Activity: increase” value is on record as “+++ (>4 (+++) fold increase over baseline)”.

On to `CC(C)(CC(=O)Nc1nc2ccc(C#N)c(F)c2n1C1CCC1)CC(F)(F)F` [Example 345, N-(6-cyano-1-cyclobutyl-7-fluoro-1H-benzo[d]imidazol-2-yl)-5,5,5-trifluoro-3,3-dimethylpentanamide], for which the “Kv7.2/7.3 Activity: increase” value is on record as “+ (1.2-2.9 (+))”. For `CC(C)(C)CC(=O)Nc1nc2ccc(OC(F)F)cc2n1C1(C)CCC1` [Example 346, N-(6-(difluoromethoxy)-1-(1-methylcyclobutyl)-1H-benzo[d]imidazol-2-yl)-3,3-dimethylbutanamide], the “Kv7.2/7.3 Activity: increase” value is given as “++ (3-3.9 (++))”. With `CC(C)(C)n1c(NC(=O)CC(C)(C)C(F)(F)F)nc2c(F)cc(C#N)c(F)c21` [Example 349, N-(1-(tert-butyl)-6-cyano-4,7-difluoro-1H-benzo[d]imidazol-2-yl)-4,4,4-trifluoro-3,3-dimethylbutanamide], the “Kv7.2/7.3 Activity: increase” value was “++ (3-3.9 (++))”. Regarding `CC(C)(O)CC(=O)Nc1nc2ccc(OC(F)F)c(F)c2n1C1(C)CCC1` [Example 351, N-(6-(difluoromethoxy)-7-fluoro-1-(1-methylcyclobutyl)-1H-benzo[d]imidazol-2-yl)-3-hydroxy-3-methylbutanamide], the “Kv7.2/7.3 Activity: increase” value was “+ (1.2-2.9 (+))”. With `CC(C)(CC(=O)Nc1nc2c(F)cc(C3(O)CCC3)cc2n1C1CCC1)C(F)(F)F` [Example 352, N-(1-cyclobutyl-4-fluoro-6-(1-hydroxycyclobutyl)-1H-benzo[d]imidazol-2-yl)-4,4,4-trifluoro-3,3-dimethylbutanamide], the “Kv7.2/7.3 Activity: increase” value is “++ (3-3.9 (++))”. `CC(C)(O)c1ccc2nc(NC(=O)CC3CC(F)(F)C3(F)F)n(C3CCC3)c2c1` (centres unmarked) [Example 353, N-(1-cyclobutyl-6-(2-hydroxypropan-2-yl)-1H-benzo[d]imidazol-2-yl)-2-(2,2,3,3-tetrafluorocyclobutyl)acetamide]: the “Kv7.2/7.3 Activity: increase” value was “+ (1.2-2.9 (+))”. As for `CC(C)(CC(=O)Nc1nc2ccc(C#N)cc2n1C(C)(C)C)C1CC1` [Example 354, N-(1-(tert-butyl)-6-cyano-1H-benzo[d]imidazol-2-yl)-3-cyclopropyl-3-methylbutanamide], the entry is “++ (3-3.9 (++))”.
